The source of these data is PMC12606464, “Investigating NFE2L1 activators for targeted protein aggregate clearance: a follow-up study” (RSC Medicinal Chemistry, 2025).

For the test, the system named is SKN-1A. Kind of test: rpt-3p::GFP reporter in C. elegans strain GR2183. The test is classed as in vivo, Caenorhabditis elegans. The text has this:
Firstly, we investigated whether RUN-89 triggers SKN-1A activation in C. elegans by using the GR2183 strain. By using this strain, the activation of SKN-1A is indicated by GFP expression, which is driven by the promoter of the proteasome subunit gene (rpt-3p::GFP).[80,81]
Figure S9. RUN-89 activates the NFE2L1 orthologue gene SKN-1A in C. elegans.
In the GR2183 strain, activation of the SKN-1A is reported by the expression of GFP under the control of the proteasome subunit gene promoter (rpt-3p::GFP). Animals were treated with 25 µM RUN-89 or DMSO (vehicle control) for 24 hours with subsequent microscopic analysis.
Results of relative GFP fluorescence intensity per single animal are presented. Overall, 71 animals (n | DMSO = 20, RUN-89 = 21) from three independent experiments ( N) were analyzed.
The two dashed horizontal lines indicate the interquartile range, and the thick horizontal line represents the median. A significant increase in fluorescence intensity after RUN-89 treatment was verified by a Kolmogorov-Smirnov test. ***p<0.001. […]
Transgenic GR2183 worms carrying the reporter gene (rpt -3p::GFP) were exposed to RUN-89 for 24 hours and for AM140 (rmIs132 [unc-54p::Q35::YFP]) to aged 6 days under treatment to establish protein aggregation model. The worms were then anesthetized with […] sodium azide and placed on glass slides with 5% agar for fluorescence microscope observation. […]

Each structure is given as a SMILES string.

In the case of `COc1ccc(/C=C2\CC(NC(=O)C3CCCC3)C/C(=C\c3ccc(OC)c(OC)c3)C2=O)cc1OC` (centres unmarked) [RUN-89], the “Average relative fluorescence intensity per GR2183 animal” value (25 μM, 24 h, 20 °C, young adults, versus vehicle) is “significantly higher”. Moreover, for the setting “GR2183, DMSO median = 100.00, Figure S9”, the “Median rpt-3p::GFP (SKN-1A reporter)” value was 114.62.
